Our source for the IC50 values is patent US8022206B2 (OSI Pharmaceuticals, LLC, priority 2008, dated 2011).

One experiment addresses RON (human) (Homo sapiens, UniProt Q04912). Kind of experiment: RON (human) AlphaScreen kinase assay, Km of ATP. Type of experiment: biochemical. Conditions: AlphaScreen, Km of ATP; read-out: RON biochemical IC50. Summed up: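 Detection used PT66 AlphaScreen beads added in Tris pH 7.5/NaCl/EDTA/BSA buffer, read after 1 h incubation. Vehicle-only DMSO wells served as controls.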
On the technique in general: In Alpha technology, singlet oxygen from a donor bead excites a nearby acceptor bead.

The target in the next experiment is MET (human) (Homo sapiens, UniProt P08581). Briefly: MET (human) AlphaScreen kinase assay, Km of ATP. In kind it is biochemical. Conditions: AlphaScreen, Km of ATP; read-out: Met biochemical IC50. Summed up: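 Human MET at lot-optimised concentration in 50 mM Tris pH 7.4 buffer with 1 mM DTT, compound at 1% DMSO final; enzyme starts the reaction, 60 min at RT.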
Chain of MET (human) (P08581 25-1390): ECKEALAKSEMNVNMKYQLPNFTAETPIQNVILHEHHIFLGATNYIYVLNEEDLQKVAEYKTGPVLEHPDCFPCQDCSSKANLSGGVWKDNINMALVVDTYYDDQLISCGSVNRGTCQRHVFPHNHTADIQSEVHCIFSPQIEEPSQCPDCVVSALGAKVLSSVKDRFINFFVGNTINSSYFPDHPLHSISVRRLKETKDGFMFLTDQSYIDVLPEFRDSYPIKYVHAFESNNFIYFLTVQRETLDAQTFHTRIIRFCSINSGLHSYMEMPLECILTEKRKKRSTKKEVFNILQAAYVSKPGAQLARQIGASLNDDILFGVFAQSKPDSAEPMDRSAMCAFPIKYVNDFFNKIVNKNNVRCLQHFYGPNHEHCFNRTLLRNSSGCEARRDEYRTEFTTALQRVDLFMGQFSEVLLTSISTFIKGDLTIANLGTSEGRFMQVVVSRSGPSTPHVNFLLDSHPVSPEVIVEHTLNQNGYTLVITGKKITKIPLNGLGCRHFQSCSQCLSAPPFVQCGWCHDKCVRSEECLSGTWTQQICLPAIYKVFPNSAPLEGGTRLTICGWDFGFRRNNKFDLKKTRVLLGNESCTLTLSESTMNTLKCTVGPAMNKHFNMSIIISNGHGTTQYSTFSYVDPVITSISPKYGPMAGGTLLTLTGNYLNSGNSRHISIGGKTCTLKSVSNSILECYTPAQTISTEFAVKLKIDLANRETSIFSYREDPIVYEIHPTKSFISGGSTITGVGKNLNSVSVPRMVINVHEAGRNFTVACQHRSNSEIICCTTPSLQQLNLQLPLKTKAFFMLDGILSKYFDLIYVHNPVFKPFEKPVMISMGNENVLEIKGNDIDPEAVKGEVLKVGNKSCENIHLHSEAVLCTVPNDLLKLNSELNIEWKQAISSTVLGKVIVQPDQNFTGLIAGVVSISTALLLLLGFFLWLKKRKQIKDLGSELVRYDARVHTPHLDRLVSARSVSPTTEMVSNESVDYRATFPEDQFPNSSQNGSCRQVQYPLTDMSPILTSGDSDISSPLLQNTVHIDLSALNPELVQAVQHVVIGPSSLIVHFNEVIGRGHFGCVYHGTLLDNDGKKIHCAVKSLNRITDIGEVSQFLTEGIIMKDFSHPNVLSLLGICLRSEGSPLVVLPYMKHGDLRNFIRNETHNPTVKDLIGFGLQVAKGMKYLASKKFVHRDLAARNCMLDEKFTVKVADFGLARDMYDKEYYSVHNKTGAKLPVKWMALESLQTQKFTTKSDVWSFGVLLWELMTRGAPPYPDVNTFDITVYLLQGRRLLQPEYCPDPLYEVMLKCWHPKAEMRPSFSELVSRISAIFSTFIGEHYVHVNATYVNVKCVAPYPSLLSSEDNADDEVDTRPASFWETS

Chain of RON (human) (Q04912 25-1400): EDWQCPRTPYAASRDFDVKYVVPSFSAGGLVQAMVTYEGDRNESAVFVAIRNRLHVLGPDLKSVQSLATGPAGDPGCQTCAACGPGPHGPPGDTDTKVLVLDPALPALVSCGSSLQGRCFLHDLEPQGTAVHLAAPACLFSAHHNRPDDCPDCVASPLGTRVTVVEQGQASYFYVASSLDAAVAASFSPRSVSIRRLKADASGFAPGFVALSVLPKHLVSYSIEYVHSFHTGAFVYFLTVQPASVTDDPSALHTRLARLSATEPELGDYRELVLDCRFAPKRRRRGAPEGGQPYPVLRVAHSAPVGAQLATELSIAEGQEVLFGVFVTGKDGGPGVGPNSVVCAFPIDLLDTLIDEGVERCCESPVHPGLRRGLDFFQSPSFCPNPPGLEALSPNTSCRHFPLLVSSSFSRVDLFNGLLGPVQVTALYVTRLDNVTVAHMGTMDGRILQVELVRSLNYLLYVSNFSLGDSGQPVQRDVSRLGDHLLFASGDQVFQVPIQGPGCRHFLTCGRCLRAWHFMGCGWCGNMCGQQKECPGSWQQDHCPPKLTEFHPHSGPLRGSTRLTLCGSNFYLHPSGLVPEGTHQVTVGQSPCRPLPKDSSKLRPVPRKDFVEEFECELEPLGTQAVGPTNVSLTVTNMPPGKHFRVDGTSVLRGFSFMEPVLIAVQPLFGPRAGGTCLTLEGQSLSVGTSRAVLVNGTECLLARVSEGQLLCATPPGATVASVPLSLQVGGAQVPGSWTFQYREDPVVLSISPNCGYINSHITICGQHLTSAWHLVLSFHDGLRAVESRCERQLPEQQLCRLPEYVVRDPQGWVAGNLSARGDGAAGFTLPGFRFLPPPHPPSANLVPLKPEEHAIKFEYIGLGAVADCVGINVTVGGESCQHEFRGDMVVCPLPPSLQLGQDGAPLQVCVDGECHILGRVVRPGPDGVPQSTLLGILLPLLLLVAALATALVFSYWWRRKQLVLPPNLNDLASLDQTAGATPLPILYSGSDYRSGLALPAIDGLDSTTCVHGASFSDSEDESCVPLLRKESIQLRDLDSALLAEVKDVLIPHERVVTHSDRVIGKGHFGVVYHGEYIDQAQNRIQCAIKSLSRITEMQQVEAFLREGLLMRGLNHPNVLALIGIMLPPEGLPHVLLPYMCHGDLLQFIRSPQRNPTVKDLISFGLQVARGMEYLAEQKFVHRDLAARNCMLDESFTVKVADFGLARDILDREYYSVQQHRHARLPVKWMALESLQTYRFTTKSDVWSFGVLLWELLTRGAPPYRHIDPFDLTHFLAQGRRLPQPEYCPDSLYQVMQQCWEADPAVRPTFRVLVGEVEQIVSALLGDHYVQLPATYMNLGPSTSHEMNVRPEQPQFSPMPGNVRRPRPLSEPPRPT

`C[C@@H](Oc1c(N)ncc2c(-c3cccc(C(=O)NCCN4CCCC4)c3)coc12)c1c(Cl)ccc(F)c1Cl` [Example 102, 3-{6-Amino-7-[(R)-1-(2,6-dichloro-3-fluorophenyl)ethoxy]-furo[3,2-c]pyridin-3-yl}-N-(2-pyrrolidin-1-ylethyl)benzamide]: the IC50 is 500 to 5000 nM at RON (human) and below 500 nM on MET (human).
Take `CC(Oc1c(N)ncc2c(-c3cnn(C4CCNCC4)c3)coc12)c1c(Cl)cc(Br)cc1Cl` (stereo not shown) [Example 442, 7-[1-(4-Bromo-2,6-dichlorophenyl)ethoxy]-3-(1-piperidin-4-yl-1H-pyrazol-4-yl)furo[3,2-c]pyridin-6-ylamine]: the half-inhibitory concentration (IC50) on RON (human) and at MET (human) was below 500 nM throughout.
Turning to `CC(C)NC(=O)N1CC=C(c2coc3c(O[C@H](C)c4c(Cl)ccc(F)c4Cl)c(N)ncc23)CC1` [Example 149, 4-{6-Amino-7-[(1R)-1-(2,6-dichloro-3-fluorophenyl)ethoxy]furo[3,2-c]pyridin-3-yl}-N-(propan-2-yl)-3,6-dihydropyridine-1(2H)-carboxamide], the IC50 is 500 to 5000 nM at RON (human) and below 500 nM on MET (human).
As for `C[C@@H](Oc1c(N)ncc2c(C3=CCCN(C(N)=O)C3)coc12)c1c(Cl)ccc(F)c1Cl` [Example 143, 5-{6-Amino-7-[(R)-1-(2,6-dichloro-3-fluorophenyl)ethoxy]furo[3,2-c]pyridin-3-yl}-3,6-dihydro-2H-pyridine-1-carboxamide], the values for the 50% inhibitory concentration (IC50) on RON (human) and on MET (human) were 500 to 5000 nM and below 500 nM, respectively.
The like results for `C[C@@H]1CN(C(=O)N2CC=C(c3coc4c(O[C@H](C)c5c(Cl)ccc(F)c5Cl)c(N)ncc34)CC2)C[C@H](C)N1C` (relative stereo) [Example 221, (4-{6-Amino-7-[(R)-1-(2,6-dichloro-3-fluorophenyl)ethoxy]-furo[3,2-c]pyridin-3-yl}-3,6-dihydro-2H-pyridin-1-yl)-((3R*,5S*)-3,4,5-trimethylpiperazin-1-yl)-methanone] were, in that order, below 500 nM and below 500 nM.
The corresponding values for `Cn1cc(-c2ccc3nnc(COc4c(N)ncc5ccoc45)n3n2)cn1` [Example 472, 7-{[6-(1-methyl-1H-pyrazol-4-yl) [1,2,4]triazolo[4,3-b]pyridazin-3-yl]methoxy}furo[3,2-c]pyridin-6-amine] are 5000 to 20000 nM and 500 to 5000 nM.
The like results for `COCCCNC(=O)c1ccc(-c2coc3c(O[C@H](C)c4c(Cl)ccc(F)c4Cl)c(N)ncc23)cc1` [Example 286, 4-{6-Amino-7-[(R)-1-(2,6-dichloro-3-fluorophenyl)ethoxy]furo[3,2-c]pyridin-3-yl}-N-(3-methoxypropyl)-benzamide] were, in that order, 500 to 5000 nM and 500 to 5000 nM.
With `C[C@@H](Oc1c(N)ncc2c(C3=CCN(C(=O)N4CCCCC4)CC3)coc12)c1c(Cl)ccc(F)c1Cl` [Example 32, (4-{6-Amino-7-[(R)-1-(2,6-dichloro-3-fluorophenyl)-ethoxy]-furo[3,2-c]pyridin-3-yl}-3,6-dihydro-2H-pyridin-1-yl)-piperidin-1-ylmethanone], the IC50 at RON (human) and on MET (human) was 500 to 5000 nM each time.
For the molecule `C[C@@H](Oc1c(N)ncc2c(C3=CCN(C(=O)C4(N)CC4)CC3)coc12)c1c(Cl)ccc(F)c1Cl` [Example 23, (1-Aminocyclopropyl)-(4-{6-amino-7-[(R)-1-(2,6-dichloro-3-fluorophenyl)-ethoxy]-furo[3,2-c]pyridin-3-yl}-3,6-dihydro-2H-pyridin-1-yl)-methanone], the IC50 at RON (human) and at MET (human) was 500 to 5000 nM each time.
Take `CC(C)NC(=O)c1csc(-c2coc3c(O[C@H](C)c4c(Cl)ccc(F)c4Cl)c(N)ncc23)c1` [Example 330, 5-{6-Amino-7-[(R)-1-(2,6-dichloro-3-fluorophenyl)ethoxy]furo[3,2-c]pyridin-3-yl}thiophene-3-carboxylic acid Isopropylamide]: the IC50 on RON (human) and on MET (human) was 5000 to 20000 nM throughout.
Regarding `Cc1csc(-c2coc3c(O[C@H](C)c4c(Cl)ccc(F)c4Cl)c(N)ncc23)c1` [Example 115, 7-[(R)-1-(2,6-Dichloro-3-fluorophenyl)ethoxy]-3-(4-methylthiophen-2-yl)furo[3,2-c]pyridin-6-ylamine], the half-maximal inhibitory concentration (IC50) at RON (human) and at MET (human) was 500 to 5000 nM in each case.
For the molecule `CCCS(=O)(=O)Nc1cccc(-c2coc3c(O[C@H](C)c4c(Cl)ccc(F)c4Cl)c(N)ncc23)c1` [Example 244, Propane-1-sulfonic acid (3-{6-amino-7-[(R)-1-(2,6-dichloro-3-fluorophenyl)ethoxy]-furo[3,2-c]pyridin-3-yl}phenyl)amide], the IC50 at RON (human) and on MET (human) was 500 to 5000 nM each time.
In the case of `CCC(=O)N1CC=C(c2coc3c(O[C@H](C)c4c(Cl)ccc(F)c4Cl)c(N)ncc23)CC1` [Example 14, 1-(4-{6-Amino-7-[(R)-1-(2,6-dichloro-3-fluorophenyl)-ethoxy]-furo[3,2-c]pyridin-3-yl}-3,6-dihydro-2H-pyridin-1-yl)-propan-1-one], the figures for the IC50 at RON (human) and on MET (human) were 500 to 5000 nM and below 500 nM, respectively.
The corresponding values for `C[C@@H](Oc1c(N)ncc2c(C3=CCN(C(=O)[C@@H](N)c4ccccc4)CC3)coc12)c1c(Cl)ccc(F)c1Cl` [Example 261, (2S)-2-Amino-1-[4-{6-amino-7-[(1R)-1-(2,6-dichloro-3-fluoro-phenyl)ethoxy]furo[3,2-c]pyridin-3-yl}-3,6-dihydropyridin-1(2H)-yl]-2-phenylethanone] are 500 to 5000 nM and below 500 nM.
For the molecule `CC(C)[C@H](O)C(=O)N1CC=C(c2coc3c(O[C@H](C)c4c(Cl)ccc(F)c4Cl)c(N)ncc23)CC1` [Example 267, (2S)-1-[4-{6-Amino-7-[(1R)-1-(2,6-dichloro-3-fluorophenyl)ethoxy]furo[3,2-c]pyridin-3-yl}-3,6-dihydropyridin-1(2H)-yl]-2-hydroxy-3-methylbutan-1-one], the IC50 was below 500 nM on RON (human) and 500 to 5000 nM on MET (human).
Take `C[C@@H](Oc1c(N)ncc2c(-c3ccc(N4CCN(C(N)=O)CC4)cc3)coc12)c1c(Cl)ccc(F)c1Cl` [Example 320, 4-(4-{6-Amino-7-[(R)-1-(2,6-dichloro-3-fluorophenyl)ethoxy]furo[3,2-c]pyridin-3-yl}phenyl)piperazine-1-carboxamide]: the 50% inhibitory concentration (IC50) at RON (human) and on MET (human) was 500 to 5000 nM each time.
Turning to `CC(Cc1c(Cl)cccc1C(F)(F)F)Oc1c(N)ncc2c(-c3cnn(C4CCNCC4)c3)coc12` (stereo not shown) [Example 440, 7-[2-(2-Chloro-6-trifluoromethylphenyl)-1-methylethoxy]-3-(1-piperidin-4-yl-1H-pyrazol-4-yl)furo[3,2-c]pyridin-6-ylamine], the IC50 on RON (human) is 500 to 5000 nM; on MET (human) it was below 500 nM.
The corresponding values for `C[C@@H](Oc1c(N)ncc2c(-c3cnn(C4CCNCC4)c3)coc12)c1nnc2ccc(-c3ccccc3)nn12` [Example 476, 7-[(1R)-1-(6-phenyl[1,2,4]triazolo[4,3-b]pyridazin-3-yl)ethoxy]-3-[1-(piperidin-4-yl)-1H-pyrazol-4-yl]furo[3,2-c]pyridin-6-amine] are 500 to 5000 nM and below 500 nM.
On to `Nc1ncc2ccoc2c1OCc1nnc2ccc(-c3ccccc3)nn12` [Example 473, 7-[(6-phenyl[1,2,4]triazolo[4,3-b]pyridazin-3-yl)methoxy]furo[3,2-c]pyridin-6-amine], for which the half-maximal inhibitory concentration (IC50) at RON (human) was above 20000 nM; on MET (human) it was 500 to 5000 nM.
The corresponding values for `C[C@@H](Oc1c(N)ncc2c(-c3csc(C(=O)O)c3)coc12)c1c(Cl)ccc(F)c1Cl` [Example 311, 4-{6-Amino-7-[(R)-1-(2,6-dichloro-3-fluorophenyl)ethoxy]furo[3,2-c]pyridin-3-yl}thiophene-2-carboxylic acid] are 500 to 5000 nM and below 500 nM.
Take `CC(C)CN1CC=C(c2coc3c(O[C@H](C)c4c(Cl)ccc(F)c4Cl)c(N)ncc23)CC1` [Example 41, 7-[(R)-1-(2,6-Dichloro-3-fluorophenyl)-ethoxy]-3-(1-isobutyl-1,2,3,6-tetrahydropyridin-4-yl)-furo[3,2-c]pyridin-6-ylamine]: the IC50 on RON (human) and at MET (human) was below 500 nM throughout.
Turning to `CN/C(=N/C#N)N1CC=C(c2coc3c(O[C@H](C)c4c(Cl)ccc(F)c4Cl)c(N)ncc23)CC1` [Example 198, 4-{6-Amino-7-[(R)-1-(2,6-dichloro-3-fluorophenyl)ethoxy]-furo[3,2-c]pyridin-3-yl}-N-cyano-N′-methyl-3,6-dihydro-2H-pyridine-1-carboxamidine], the IC50 at RON (human) and on MET (human) was 500 to 5000 nM in each case.
For the molecule `Cc1ccsc1-c1coc2c(O[C@H](C)c3c(Cl)ccc(F)c3Cl)c(N)ncc12` [Example 116, 7-[(R)-1-(2,6-Dichloro-3-fluorophenyl)ethoxy]-3-(3-methylthiophen-2-yl)furo[3,2-c]pyridin-6-ylamine], the figures for the IC50 on RON (human) and at MET (human) were 5000 to 20000 nM and 500 to 5000 nM, respectively.
The corresponding values for `C[C@@H](Oc1c(N)ncc2c(C3=CCN(C(=O)[C@H](N)CO)CC3)coc12)c1c(Cl)ccc(F)c1Cl` [Example 255, (2R)-2-Amino-1-[4-{6-amino-7-[(1R)-1-(2,6-dichloro-3-fluoro-phenyl)ethoxy]furo[3,2-c]pyridin-3-yl}-3,6-dihydropyridin-1(2H)-yl]-3-hydroxypropan-1-one] are below 500 nM and below 500 nM.
The like results for `N#CCc1ccccc1COc1c(N)ncc2c(-c3cnn(C4CCNCC4)c3)coc12` [Example 433, {2-[6-Amino-3-(1-piperidin-4-yl-1H-pyrazol-4-yl)furo[3,2-c]pyridin-7-yloxymethyl]phenyl}acetonitrile] were, in that order, 500 to 5000 nM and 500 to 5000 nM.
The like results for `C[C@@H](Oc1c(N)ncc2c(-c3cccc(C(=O)NCCN4CCOCC4)c3)coc12)c1c(Cl)ccc(F)c1Cl` [Example 97, 3-{6-Amino-7-[(R)-1-(2,6-dichloro-3-fluorophenyl)ethoxy]-furo[3,2-c]pyridin-3-yl}-N-(2-morpholin-4-ylethyl)benzamide] were, in that order, 500 to 5000 nM and 500 to 5000 nM.

Broadly, the IC50 is the point on the concentration scale where inhibition reaches its midpoint.
